Measurements reported in patent publication US11952365B2, “Anti-viral compounds” (Aligos Therapeutics, Inc., priority 2020, dated 2024).
Where two headings read alike, the source gives them in different places.

What was measured:
HRV3C = HRV3C (Human rhinovirus 14, UniProt P03303); assay: HRV3C protease assay (duplex, SAMDI-MS); type: biochemical, HRV; conditions: 30 mins preincubation
How it was run: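 Duplex format with 3CLpro; 30 min enzyme–compound preincubation, 30 min reaction with two peptide substrates, ambient temp. Stop: 0.5% formic acid, neutralized with 1% NaHCO3 (finals). Readout SAMDI-MS, product AUC over internal standard AUC; four-parameter IC50.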

[1] = system: human beta-coronavirus OC43; assay: microbe, parasite or virus in culture; type: cell-based; conditions: Betacoronavirus 1, OC43, HeLa, 144 h, OC43 in HeLa cells, 6 days at 33° C., read-out: EC50
[2] = Cytotoxicity plates without OC43 virus (cell-titer-glo); type: cell-based, human; conditions: human; HeLa cells without OC43 virus, class symbols
How it was run: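 HeLa cells seeded overnight, then treated with serially diluted compounds in 2% FBS EMEM, uninfected, in parallel with the OC43 antiviral plates. Incubated 6 days at 33 °C; viability read by CellTiter-Glo luminescence.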

[3] = system: SARS-CoV-2-GHB-03021/2020; assay: SARS-CoV-2 Infection Model in Huh7 Cells; type: cell-based; conditions: Severe acute respiratory syndrome coronavirus 2, Huh-7, 96 h, SARS-CoV-2, day 4 p.i., MTS
[4] = system: SARS-CoV-2-GHB-03021/2020; assay: microbe, parasite or virus in culture; type: cell-based; conditions: Severe acute respiratory syndrome coronavirus 2, Vero C1008, 96 h; read-out: VeroE6 + CP (EC50)
human cathepsin L = target: T1, human cathepsin L (Homo sapiens, UniProt P07711); assay: cathepsin L assay; type: biochemical; conditions: 10 pM human cathepsin L, Z-FR-AMC 2 μM, class symbols
T1 construct: purchased R&D Systems
How it was run: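 Human cathepsin L at 10 pM was preincubated 30 min with compound, then reaction started with Z-FR-AMC (2 μM final). Fluorescence (355/460 nm) read every 2 min for 30 min; IC50 from four-parameter curve fit.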

in vitro [5] = conditions: human
in vitro [6] = conditions: African green monkey, VeroE6 + CP (CC50), Vero E6-eGFP cells with CP-100356, absence of virus, MTS
3CLpro = 3CLpro (Severe acute respiratory syndrome coronavirus 2, UniProt P0DTD1); assay: SARS-CoV-2 3CLpro protease assay (duplex, SAMDI-MS); type: biochemical; set-up: For the duplex assay, 3CLpro and HRV3C was added; conditions: 3CLpro, 30 mins preincubation, class symbols; read-out: SARS-Cov-2 IC50
[7] = HRV3C, bound, read-out: HRV IC50
[8] = HRV3C, class symbols, read-out: HRV IC50

| Structure (SMILES) | IC50 (HRV3C; [7]) [µM] | EC50 ([1]; class symbols) [µM] | CC50 at 6 days [2] [µM] | EC50 ([3]; class symbols) [µM] | EC50 [4] [µM] | IC50 (human cathepsin L) [µM] | CC50 (in vitro [5]) [µM] | CC50 (in vitro [6]; numeric bounds) [µM] | IC50 (3CLpro) [µM] | IC50 (HRV3C; [8]) [µM] | EC50 ([1]; bound) [µM] | EC50 ([3]; numeric bounds) [µM] | CC50 (in vitro [6]; class symbols) [µM] | IC50 (HRV3C; HRV IC50, HRV3C, class symbols) [µM] |
| --- | --- | --- | --- | --- | --- | --- | --- | --- | --- | --- | --- | --- | --- | --- |
| O=C1NCC[C@H]1C[C@H](NC(=O)[C@@H]1[C@H]2CCC[C@H]2CN1C(=O)c1cc2c(Cl)ccc(Cl)c2[nH]1)C(=O)CO [Compound 156, (1S,3aR,6aS)-2-(4,7-dichloro-1H-indole-2-carbonyl)-N-[(2S)-4-hydroxy-3-oxo-1-[(3S)-2-oxopyrrolidin-3-yl]butan-2-yl]-hexahydro-1H-cyclopenta[c]pyrrole-1-carboxamide] | > 10 | 0.1 to 1 | > 10 | < 1 | < 1 | ≥ 10 | > 50 | > 50 | < 0.02 | – | – | – | – | – |
| COc1cc(Cl)c(Cl)c2[nH]c(C(=O)N3C[C@@H]4CCC[C@@H]4[C@H]3C(=O)N[C@@H](C[C@@H]3CCNC3=O)C(=O)CO)cc12 [Compound 158, (1S,3aR,6aS)-2-(6,7-dichloro-4-methoxy-1H-indole-2-carbonyl)-N-[(2S)-4-hydroxy-3-oxo-1-[(3S)-2-oxopyrrolidin-3-yl]butan-2-yl]-hexahydro-1H-cyclopenta[c]pyrrole-1-carboxamide] | – | 0.1 to 1 | > 10 | < 1 | < 1 | ≥ 10 | > 10 | > 50 | < 0.02 | 2 to 20 | – | – | – | – |
| O=C1NCC[C@H]1C[C@H](NC(=O)[C@@H]1[C@H]2CCC[C@H]2CN1C(=O)c1cc2c([nH]1)CCS2(=O)=O)C(=O)CO [Compound 159, (1S,3aR,6aS)-2-{1,1-dioxo-2H,3H,4H-1λ6-thieno[3,2-b]pyrrole-5-carbonyl}-N-[(2S)-4-hydroxy-3-oxo-1-[(3S)-2-oxopyrrolidin-3-yl]butan-2-yl]-hexahydro-1H-cyclopenta[c]pyrrole-1-carboxamide] | > 10 | – | > 10 | – | 10 to 100 | ≥ 10 | > 50 | > 50 | 0.02 to 0.2 | – | > 10 | > 10 | – | – |
| O=C1NCC[C@H]1C[C@H](NC(=O)[C@@H]1[C@H]2CCC[C@H]2CN1C(=O)c1cc2c(Cl)cc(Cl)c(F)c2[nH]1)C(=O)CO [Compound 160, (1S,3aR,6aS)-2-(4,6-dichloro-7-fluoro-1H-indole-2-carbonyl)-N—((S)-4-hydroxy-3-oxo-1-((S)-2-oxopyrrolidin-3-yl)butan-2-yl)octahydrocyclopenta[c]pyrrole-1-carboxamide] | > 10 | 0.1 to 1 | > 10 | < 1 | < 1 | ≥ 10 | > 10 | > 50 | < 0.02 | – | – | – | – | – |
| O=C1NCC[C@H]1C[C@H](NC(=O)[C@@H]1[C@H]2CCC[C@H]2CN1C(=O)c1cc2c(Cl)cc(C(F)(F)F)cc2[nH]1)C(=O)CO [Compound 161, (1S,3aR,6aS)-2-[4-chloro-6-(trifluoromethyl)-1H-indole-2-carbonyl]-N-[(2S)-4-hydroxy-3-oxo-1-[(3S)-2-oxopyrrolidin-3-yl]butan-2-yl]-hexahydro-1H-cyclopenta[c]pyrrole-1-carboxamide] | > 10 | < 0.1 | > 10 | < 1 | 1 to 10 | ≥ 10 | > 10 | > 50 | 0.02 to 0.2 | – | – | – | – | – |
| O=C1NCC[C@H]1C[C@H](NC(=O)[C@@H]1[C@H]2CCC[C@H]2CN1C(=O)c1cc2c(Cl)cc(F)c(Cl)c2[nH]1)C(=O)CO [Compound 162, (1S,3aR,6aS)-2-(4,7-dichloro-6-fluoro-1H-indole-2-carbonyl)-N-[(2S)-4-hydroxy-3-oxo-1-[(3S)-2-oxopyrrolidin-3-yl]butan-2-yl]-hexahydro-1H-cyclopenta[c]pyrrole-1-carboxamide] | – | < 0.1 | > 10 | < 1 | < 1 | ≥ 10 | > 50 | > 50 | < 0.02 | 2 to 20 | – | – | – | – |
| COc1cc(C(F)(F)F)cc2[nH]c(C(=O)N3C[C@@H]4CCC[C@@H]4[C@H]3C(=O)N[C@@H](C[C@@H]3CCNC3=O)C(=O)CO)cc12 [Compound 163, (1S,3aR,6aS)—N—((S)-4-hydroxy-3-oxo-1-((S)-2-oxopyrrolidin-3-yl)butan-2-yl)-2-(4-methoxy-6-(trifluoromethyl)-1H-indole-2-carbonyl)octahydrocyclopenta[c]pyrrole-1-carboxamide] | – | < 0.1 | > 10 | 1 to 10 | 1 to 10 | ≥ 10 | > 50 | > 50 | < 0.02 | 2 to 20 | – | – | – | – |
| O=C(NC1CC1)C(=O)[C@H](C[C@@H]1CCNC1=O)NC(=O)[C@@H]1CC2(CCN1C(=O)c1cc3c(F)cccc3[nH]1)CC2 [Compound 164] | – | 1 to 10 | > 10 | – | 10 to 100 | 1 to 10 | 1 to 10 | > 50 | < 0.02 | 0.2 to 2 | – | > 10 | – | – |
| O=C(NC1CC1)C(=O)[C@H](C[C@@H]1CCNC1=O)NC(=O)[C@@H]1CC2(CCN1C(=O)c1cc3ccccc3s1)CC2 [Compound 165] | – | 0.1 to 1 | > 10 | < 1 | < 1 | 1 to 10 | > 10 | > 50 | 0.02 to 0.2 | 0.2 to 2 | – | – | – | – |
| O=C(NCCOC1CCCC1)C(=O)[C@H](C[C@@H]1CCNC1=O)NC(=O)[C@@H]1[C@H]2CCC[C@H]2CN1C(=O)c1cc2c(Cl)cc(Cl)cc2[nH]1 [Compound 166] | > 10 | 0.1 to 1 | > 10 | < 1 | < 1 | 1 to 10 | 1 to 10 | – | < 0.02 | – | – | – | > 10 | – |
| N#C[C@H](C[C@@H]1CCNC1=O)NC(=O)[C@@H]1[C@H]2CCC[C@H]2CN1C(=O)c1cc2c(Cl)ccc(Cl)c2[nH]1 [Compound 167, (1S,3aR,6aS)—N-[(1S)-1-cyano-2-[(3S)-2-oxopyrrolidin-3-yl]ethyl]-2-(4,7-dichloro-1H-indole-2-carbonyl)-hexahydro-1H-cyclopenta[c]pyrrole-1-carboxamide] | > 10 | 0.1 to 1 | > 10 | < 1 | < 1 | ≥ 10 | > 10 | > 50 | 0.2 to 2 | – | – | – | – | – |
| O=C1NCC[C@H]1C[C@H](NC(=O)[C@@H]1[C@H]2CCC[C@H]2CN1C(=O)c1cc2c(Cl)ccc(-c3ccccc3)c2[nH]1)C(=O)CO [Compound 168, (1S,3aR,6aS)-2-(4-chloro-7-phenyl-1H-indole-2-carbonyl)-N-[(2S)-4-hydroxy-3-oxo-1-[(3S)-2-oxopyrrolidin-3-yl]butan-2-yl]-hexahydro-1H-cyclopenta[c]pyrrole-1-carboxamide] | > 10 | 1 to 10 | > 10 | 1 to 10 | 1 to 10 | ≥ 10 | > 10 | > 50 | 0.2 to 2 | – | – | – | – | – |
| Cc1cccc2[nH]c(C(=O)N3CCC4(CC4)C[C@H]3C(=O)N[C@@H](C[C@@H]3CCNC3=O)C(=O)C(=O)NC3CC3)cc12 [Compound 169] | – | 1 to 10 | > 10 | 1 to 10 | 1 to 10 | 1 to 10 | > 10 | > 50 | 0.02 to 0.2 | 0.2 to 2 | – | – | – | – |
| O=C(NC1CC1)C(=O)[C@H](C[C@@H]1CCNC1=O)NC(=O)[C@@H]1CC2(CCN1C(=O)c1cc3c(C(F)(F)F)cccc3[nH]1)CC2 [Compound 170] | – | 1 to 10 | > 10 | 1 to 10 | 10 to 100 | 0.1 to 1 | > 10 | > 50 | 0.02 to 0.2 | 0.2 to 2 | – | – | – | – |
| COc1ccc2[nH]c(C(=O)N3CCC4(CC4)C[C@H]3C(=O)N[C@@H](C[C@@H]3CCNC3=O)C(=O)C(=O)NC3CC3)cc2c1 [Compound 171] | – | 1 to 10 | > 10 | 1 to 10 | 1 to 10 | ≥ 10 | > 10 | > 50 | 0.02 to 0.2 | – | – | – | – | 2 to 20 |
